Converted amounts (≈) assume the structure as drawn. Counter-ions that a name gives are not always drawn.
Columns and labels:
S. mitis = assay: microbe, parasite or virus in culture; format: cell-based, Streptococcus mitis; conditions: for Minimum inhibitory concentration (MIC), S. mitis: peptides 0–50 μM, 37 °C, microaerophilic, A620 nm, three separate experiments
Source text: (§1) Streptococcus mutans Clarke (strain designation NCTC 10449), Pseudomonas aeruginosa (Schroeter) Migula (strain designation PAO1), Fusobacterium nucleatum, subspecies nucleatum (strain VPI 4355), and Porphyromonas gingivalis (strain 2561) were purchased from ATCC (LGC Standards Srl, Milan, Italy). Streptococcus mitis, Streptococcus oralis, and Streptococcus sanguinis were obtained from clinical isolates and characterized by morphological, biochemical, and molecular typing. S. mutans, S. mitis, S. oralis, and S. sanguinis were maintained in Brain Heart Infusion (BHI) broth or agar under microaerophilic conditions. P. aeruginosa was maintained in trypticase soy (TS) agar or broth. F. nucleatum was maintained in TS agar or broth with defibrinated sheep blood under anaerobic conditions. P. gingivalis was maintained in ATCC Medium 2722 supplemented with TS broth or agar under anaerobic conditions. Before the experiments, bacterial cultures were inoculated in fresh media (dilution 1:100) and grown for 16 h at 37 °C.
(§2) The antimicrobial activities of the tested peptides were assessed through the determination of the minimum inhibitory concentration (MIC) standardized by the Clinical and Laboratory Standards Institute. Bacterial inocula were diluted in 10 mL of MHB […]. The concentration of the bacteria was adjusted to 0.5 McFarland standard, and the bacteria were dispensed in 96-well microtiter plates (final bacterial concentration: 1 × 10^4 CFU/well). Peptides were dissolved in sterile water (stock concentration: 2 mM) and added at final concentrations ranging from 0 to 50 µM. Plates were incubated at 37 °C for 16 h. At the end of incubation, bacterial growth was recorded using a microplate reader (Varioskan Lux Reader; Thermo Fisher Scientific, Milan, Italy) by quantifying the adsorption at 620 nm. Cultures were then opportunely diluted and seeded on agar plates. Bacterial cultures inoculated with the highest final concentration of the vehicle (sterile water) or chlorhexidine hydrochloride salt (CHX, concentration range: 0.05 to 500 μg/mL; Merck, Milan, Italy) were included as controls in each test. Experiments were performed in triplicate.

S. oralis = assay: microbe, parasite or virus in culture; format: cell-based, Streptococcus oralis; conditions: for Minimum inhibitory concentration (MIC), S. oralis: peptides 0–50 μM, 37 °C, microaerophilic, A620 nm, three separate experiments
Source text: as §1, §2

comE gene = assay: qRT-PCR, comE gene expression; format: cell-based, Streptococcus mutans; conditions: analog 20 μM with CSP1 20 μM, planktonic, 8 h, qPCR
Description: (§3) S. mutans was cultured in BHI supplemented with peptides or the vehicle. Cultures were centrifuged, and total RNA was isolated and purified from the bacterial pellets using the GRS Total RNA Kit—Bacteria (GK16.0100; GRISP Research Solution, Porto, Portugal), following the manufacturer’s instructions. Purified RNA was subjected to DNase I treatment to remove contaminating DNA. The RNA yield and purity were assessed by measuring the absorbance, and only samples with a ratio of 260/280 nm in the 1.8–2 range were used. cDNA was generated using the cDNA RT kit with an RNAse inhibitor (Applied Biosystems; Monza, Milan). Quantitative PCR (qRT-PCR) was performed using SYBR green mixture (iScript One Step RT-PCR kit; Bio-Rad, Segrate, Milan) to determine the transcript levels of genes using the oligonucleotides listed in Table 3. The gyrA gene served as the housekeeping gene.

S. sanguinis = assay: microbe, parasite or virus in culture; format: cell-based, Streptococcus sanguinis; conditions: for Minimum inhibitory concentration (MIC), S. sanguinis: peptides 0–50 μM, 37 °C, microaerophilic, A620 nm, three separate experiments
Source text: as §1, §2

P. aeruginosa = assay: microbe, parasite or virus in culture; format: cell-based, Pseudomonas aeruginosa; conditions: 16 h; for Minimum inhibitory concentration (MIC), P. aeruginosa: peptides 0–50 μM, 37 °C, aerobic, A620 nm, three separate experiments
Source text: as §1, §2

comD gene = assay: qRT-PCR, comD gene expression; format: cell-based, Streptococcus mutans; conditions: analog 20 μM with CSP1 20 μM, planktonic, 8 h, qPCR
Description: as §3

F. nucleatum = assay: microbe, parasite or virus in culture; format: cell-based, Fusobacterium nucleatum; conditions: 16 h; for Minimum inhibitory concentration (MIC), F. nucleatum: peptides 0–50 μM, 37 °C, anaerobic, A620 nm, three separate experiments
Source text: as §1, §2

[1] = system: S. mutans bacteriocin production against S. oralis; assay: Bacteriocin overlay assay, S. mutans spotted on S. oralis; format: cell-based, Streptococcus mutans; conditions: analog 20 μM with CSP1 20 μM, 16 h, p < 0.05 vs CSP1
Description: (§4) During the formation of complex biofilm such as dental plaque, the ability of S. mutans to compete with other commensal species determines the success of the cariogenesis process. S. mutans uses antibacterial peptides, namely, bacteriocins, to overcome and subvert the composition of dental microbiota. We investigated the production of bacteriocins using the overlay assay. Overnight cultures of S. mitis, S. oralis, S. sanguinis, P. aeruginosa, F. nucleatum, or P. gingivalis were diluted 1:100 in BHI or TS broth and incubated at 37 °C until they reached an OD620 of 0.3. Cultures were added with agar (BD Difco^TM Agar) at the final concentration of 1.5% w/v and transferred in plates. Overnight cultures of S. mutans were diluted 1:100 in BHI and added with peptides (20 μM) or the vehicle with or without CSP1. Culture media were supplemented with agar to reach the final concentration of 0.7% w/v. The solutions were spotted on the surface of agar plates prepared as described above. The plates were kept on the benchtop for 30 min, allowing the agar containing S. mutans to solidify, and then incubated at 37 °C for 16 h under microaerophilic or anaerobic conditions, as required.
(§5) Spots (10 for each experimental group) were acquired and analyzed using NIH Image J software (version 1.53t August 2022, https://imagej.nih.gov/ij/index.html; accessed on 7 September 2022). The appearance of a clear area on the plate (bacterial growth inhibition) was evaluated as indicative of bacteriocin activity. The diameters of the area were measured in a blinded fashion.

[2] = system: S. mutans bacteriocin production against S. sanguinis; assay: Bacteriocin overlay assay, S. mutans spotted on S. sanguinis; format: cell-based, Streptococcus mutans; conditions: analog 20 μM with CSP1 20 μM, 16 h, p < 0.05 vs CSP1
Description: as §4, §5

[3] = system: S. mutans bacteriocin production against S. mitis; assay: Bacteriocin overlay assay, S. mutans spotted on S. mitis; format: cell-based, Streptococcus mutans; conditions: analog 20 μM with CSP1 20 μM, 16 h, p < 0.05 vs CSP1
Description: as §4, §5

bip gene = assay: qRT-PCR, bip gene expression; format: cell-based, Streptococcus mutans; conditions: analog 20 μM with CSP1 20 μM, 8 h, qPCR, p < 0.05 vs CSP1
Description: as §3

S. mutans = assay: microbe, parasite or virus in culture; format: cell-based, Streptococcus mutans; conditions: for Minimum inhibitory concentration (MIC), S. mutans: peptides 0–50 μM, 37 °C, microaerophilic, A620 nm, three separate experiments
Source text: as §1, §2

P. gingivalis = assay: microbe, parasite or virus in culture; format: cell-based, Porphyromonas gingivalis; conditions: 16 h; for Minimum inhibitory concentration (MIC), P. gingivalis: peptides 0–50 μM, 37 °C, anaerobic, A620 nm, three separate experiments
Source text: as §1, §2

[4] = system: S. mutans biofilm formation; assay: Biofilm formation (crystal violet); format: cell-based, Streptococcus mutans; conditions: CHX 0.63 μg/mL, 72 h, stimuli renewed every 24 h
Description: (§6) Overnight cultures of S. mutans were diluted 1:1000 in a 1:10 solution of BHI broth supplemented with 0.2% w/v sucrose and artificial saliva (AS; 1.3 g/L KCl, 0.1 g/L NaCl, 0.05 g/L MgCl, 0.1 g/L CaCl2, 0.5 g/L peptone, 25 μg/L NaF, 27 mg/L KH2PO4, 35 mg/L K2HPO4, pH 6.8; all reagents purchased from Merck). Cultures were seeded into 96-well polystyrene microtiter plates (200 µL/well) and incubated at 37 °C under static conditions. To identify the time of incubation that is useful in obtaining a mature biofilm, plates were incubated for 16, 24, 48, 72, or 96 h. Half of the media was renewed every 24 h. At the end of incubations, the wells were emptied and washed three times with sterile PBS to remove planktonic cells. Adhering cells were incubated with resazurin 0.01% in the dark at 37 °C for 20 min [30]. In metabolically active cells, the non-fluorescent resazurin was reduced to highly fluorescent resorufin by dehydrogenase enzymes. The relative fluorescence units (RFU) of resorufin were measured using a fluorimeter (Ex = 530–570 nm, Em = 590–620 nm; Varioskan Lux Reader; Thermo Fisher Scientific).
(§7) To assess the effect of the compounds on biofilm formation or mature biofilm, cultures of S. mutans were prepared as described above. […] The optical density was measured at 570 nm using a microplate reader (Varioskan Lux Reader; Thermo Fisher Scientific). […]

S. mutans mature biofilm = assay: Mature biofilm (crystal violet); format: cell-based, Streptococcus mutans; conditions: CHX 0.63 μg/mL added at 48 h, biofilm assessed 24 h later
Description: as §6, §7

[5] = CHX, microdilution method and colony counting assay

Row | Structure (SMILES) | Minimum inhibitory concentration (MIC), S. mitis (S. mitis; 16 h) | Minimum inhibitory concentration (MIC), S. oralis (S. oralis; 16 h) | Effect on the expression of comE induced by CSP1 (comE gene) | Minimum inhibitory concentration (MIC), S. sanguinis (S. sanguinis; 16 h) | Minimum inhibitory concentration (MIC), P. aeruginosa (P. aeruginosa) | Effect on the expression of comD induced by CSP1 (comD gene) | Minimum inhibitory concentration (MIC), F. nucleatum (F. nucleatum) | Effect on the CSP1-induced antibacterial effects against S. oralis [1] | Effect on the CSP1-induced antibacterial effects against S. sanguinis [2] | Effect on the CSP1-induced antibacterial effects against S. mitis [3] | Effect on the CSP1-induced expression of bip (bip gene) | Minimum inhibitory concentration (MIC), S. mutans (S. mutans; 16 h) | Minimum inhibitory concentration (MIC), P. gingivalis (P. gingivalis) | other results
1 | CC[C@H](C)[C@H](NC(=O)[C@H](Cc1ccccc1)NC(=O)[C@H](CC(=O)O)NC(=O)[C@H](CCCNC(=N)N)NC(=O)[C@H](Cc1ccccc1)NC(=O)[C@H](Cc1ccccc1)NC(=O)[C@H](CCCCNC(C)=O)NC(=O)[C@H](CO)NC(=O)[C@H](CC(C)C)NC(=O)[C@H](CCCNC(=N)N)NC(=O)[C@H](CCSC)NC(=O)[C@H](CCC(=O)O)NC(C)=O)C(=O)N[C@@H](CC(C)C)C(=O)N[C@@H](CCC(N)=O)C(=O)N[C@@H](CCCNC(=N)N)C(=O)N[C@@H](CCCCNC(C)=O)C(=O)N[C@@H](CCCCNC(C)=O)C(=O)O [Ac4CSP1] | 28 µM (≈ 67.5 µg/mL) | 23 µM (≈ 55.5 µg/mL) | inhibited the expression | 25 µM (≈ 60.3 µg/mL) | >50 µM | inhibited the expression | >50 µM | significantly reduced | significantly reduced | significantly reduced | significantly reduced | 26 µM (≈ 62.7 µg/mL) | >50 µM | –
2 | CC[C@H](C)[C@H](NC(=O)[C@H](Cc1ccccc1)NC(=O)[C@H](CC(=O)O)NC(=O)[C@H](CCCNC(=N)N)NC(=O)[C@H](Cc1ccccc1)NC(=O)[C@H](Cc1ccccc1)NC(=O)[C@H](CCCCN)NC(=O)[C@H](CO)NC(=O)[C@H](CC(C)C)NC(=O)[C@H](CCCNC(=N)N)NC(=O)[C@H](CCSC)NC(=O)[C@H](CCC(=O)O)NC(C)=O)C(=O)N[C@@H](CC(C)C)C(=O)N[C@@H](CCC(N)=O)C(=O)N[C@@H](CCCNC(=N)N)C(=O)N[C@@H](CCCCN)C(=O)N[C@@H](CCCCN)C(=O)O [AcCSP1] | 24 µM (≈ 54.8 µg/mL) | 21 µM (≈ 48 µg/mL) | inhibited the expression | 27 µM (≈ 61.7 µg/mL) | >50 µM | inhibited the expression | >50 µM | significantly reduced | significantly reduced | significantly reduced | significantly reduced | 20 µM (≈ 45.7 µg/mL) | >50 µM | –
3 | [H]/N=C(\N/C(=N/[H])NCCCCCCNC(=N)NC(=N)Nc1ccc(Cl)cc1)Nc1ccc(Cl)cc1 [CHX, chlorhexidine hydrochloride salt] | – | – | – | – | – | – | – | – | – | – | – | – | – | Concentration inducing bactericidal activity, S. mitis (S. mitis; [5]): below 1 μg/mL; MIC (S. mitis; Streptococcus mitis, 16 h, read-out: Minimum inhibitory concentration (MIC), S. mitis): 0.5 µg/mL; Concentration inducing bactericidal activity, S. oralis (S. oralis; [5]): below 1 μg/mL; MIC (S. oralis; Streptococcus oralis, 16 h, read-out: Minimum inhibitory concentration (MIC), S. oralis): 0.57 µg/mL; Concentration inducing bactericidal activity, S. sanguinis (S. sanguinis; [5]): below 1 μg/mL; MIC (S. sanguinis; Streptococcus sanguinis, 16 h, read-out: Minimum inhibitory concentration (MIC), S. sanguinis): 0.69 µg/mL; MIC (P. aeruginosa; Pseudomonas aeruginosa, read-out: Minimum inhibitory concentration (MIC), P. aeruginosa): 1.68 µg/mL; MIC (F. nucleatum; Fusobacterium nucleatum, read-out: Minimum inhibitory concentration (MIC), F. nucleatum): 300 µg/mL; Concentration inducing bactericidal activity, S. mutans (S. mutans; [5]): below 1 μg/mL; MIC (S. mutans; Streptococcus mutans, 16 h, read-out: Minimum inhibitory concentration (MIC), S. mutans): 0.63 µg/mL; Reduction of biofilm formation vs. vehicle [4]: 70%; MIC (P. gingivalis; Porphyromonas gingivalis, read-out: Minimum inhibitory concentration (MIC), P. gingivalis): 254 µg/mL; Reduction of mature biofilm vs. vehicle (S. mutans mature biofilm): 54%
